Test results from patent US12344616B2, “Factor XIa inhibitors” (Merck Sharp & Dohme LLC, priority 2018, dated 2025).
In brackets after ≈: the same amount, converted by molar mass. Like-named read-outs stand apart in the source and are kept apart here.

Assays:
Human plasma kallikrein = Human plasma kallikrein (Homo sapiens (Human), UniProt P03952); experiment: Kallikrein assay (plasma kallikrein, pKal); type: biochemical; conditions: purified Human plasma kallikrein 0.5 nM, Acetyl-K-P-R-AFC substrate
Chain of Human plasma kallikrein (P03952 391-638): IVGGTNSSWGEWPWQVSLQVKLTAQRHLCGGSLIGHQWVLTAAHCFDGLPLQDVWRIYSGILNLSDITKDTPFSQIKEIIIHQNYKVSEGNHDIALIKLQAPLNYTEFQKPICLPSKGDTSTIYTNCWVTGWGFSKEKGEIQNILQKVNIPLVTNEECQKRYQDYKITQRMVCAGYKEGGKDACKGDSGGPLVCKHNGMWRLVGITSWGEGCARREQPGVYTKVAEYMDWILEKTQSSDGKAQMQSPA
Chain of Human plasma kallikrein (P03952 20-390 partner): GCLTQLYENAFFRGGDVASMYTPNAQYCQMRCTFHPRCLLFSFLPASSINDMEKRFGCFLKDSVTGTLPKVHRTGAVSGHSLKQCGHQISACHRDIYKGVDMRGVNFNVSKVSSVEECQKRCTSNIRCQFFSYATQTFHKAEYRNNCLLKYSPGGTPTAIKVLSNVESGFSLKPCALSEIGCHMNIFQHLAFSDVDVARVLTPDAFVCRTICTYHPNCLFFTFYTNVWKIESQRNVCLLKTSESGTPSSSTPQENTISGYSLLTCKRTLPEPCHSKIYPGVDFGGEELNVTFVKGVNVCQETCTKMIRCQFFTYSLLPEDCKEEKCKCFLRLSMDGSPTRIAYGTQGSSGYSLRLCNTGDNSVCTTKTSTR
Method: The effectiveness of a compound of the present invention as an inhibitor of Kallikrein can be determined using a relevant purified serine protease, and an appropriate synthetic substrate. The rate of hydrolysis of the chromogenic or fluorogenic substrate by the relevant serine protease was measured both in the absence and presence of compounds of the present invention. Assays were conducted at room temperature or at 37° C. […] A decrease in the rate of fluorescence change in the presence of inhibitor is indicative of enzyme inhibition. Such methods are known to one skilled in the art. […] Determinations were made using purified Human plasma kallikrein at a final concentration of 0.5 nM (Enzyme Research Laboratories) and the synthetic substrate, Acetyl-K—P—R-AFC (Sigma #C6608) at a concentration of […].
Activity assays were performed by diluting a stock solution of substrate at least tenfold to a final concentration ≤0.2 Km into a solution containing enzyme or enzyme equilibrated with inhibitor. Times required to achieve equilibration between enzyme and inhibitor were determined in control experiments. The reactions were performed under linear progress curve conditions and fluorescence increase measured at 405 Ex/510 Em nm. Values were converted to percent inhibition of the control reaction (after subtracting 100% Inhibition value). IC50 was determined by inflection point from a four parameter logistic curve fit. Ki was calculated using the Cheng Prusoff equation, Ki=IC50/(1+([S]/Km)).

[1] = High-throughput (HT) solubility determination; type: physicochemical; conditions: kinetic from dmso stock
Method: The chromatographic system consists of an Agilent 1290 UPLC/DAD system and ChemStation software, both from Agilent Technologies, USA. The separations are carried out on a Supelco Ascentis Express C18, 30 mm×3.0 mm I.D., 2.7 μm HPLC column. The mobile phase consists of Potassium phosphate buffered at pH 7 (mobile phase A) and acetonitrile (mobile phase B). The column oven temperature is set to 30° C. and the UPLC analysis consists of a gradient. The injection volume is 2 μL and the spectrophotometric detection is set to 215 and 238 nm.
A 10 mM stock solution of the compound in DMSO is supplied for analysis. 2.5 μL of stock solution (10 mM) was diluted into 247.5 μL of organic co-solvents (10% MeCN/80% MeOH/10% DMSO, v/v/v) to create a standard solution of 100 μM. To create the solubility solutions, 4.1 μL of 10 mM DMSO stock solution was diluted into […] (PBS) (pH 7) solution. A second 4.1 μL aliquot of 10 mM DMSO stock solution was added to 196 μL of PBS (pH 2) solution. A third 4.1 μL aliquot of 10 mM DMSO stock solution was added to 196 μL of FaSSIF (pH 6.5) solution. Each solubility solution was sealed and shaken for 24 hours at 25° C. Filtered the equilibrated solubility solutions by centrifugation using a filter (0.45 μm, polypropylene). Placed 50 μL each of the 100 μM standard solution and the filtered equilibrated solubility solutions into a 384 well plate, and the plate was subsequently heat sealed.
Analyzed each standard and solubility solution by UPLC/DAD. The solubility value was calculated by the following equation: Solubility=(Peak area of sample/Peak area of standard)(Standard concentration)

[2] = molecular target: Human Norepinephrine Transporter (NET) (Homo sapiens (Human), UniProt P23975); experiment: Norepinephrine Transporter functional antagonist uptake assay; type: cell-based; conditions: [3H]Norepinephrine uptake, MDCK cells expressing human recombinant NET
Chain of Human Norepinephrine Transporter (NET) (P23975 whole entry): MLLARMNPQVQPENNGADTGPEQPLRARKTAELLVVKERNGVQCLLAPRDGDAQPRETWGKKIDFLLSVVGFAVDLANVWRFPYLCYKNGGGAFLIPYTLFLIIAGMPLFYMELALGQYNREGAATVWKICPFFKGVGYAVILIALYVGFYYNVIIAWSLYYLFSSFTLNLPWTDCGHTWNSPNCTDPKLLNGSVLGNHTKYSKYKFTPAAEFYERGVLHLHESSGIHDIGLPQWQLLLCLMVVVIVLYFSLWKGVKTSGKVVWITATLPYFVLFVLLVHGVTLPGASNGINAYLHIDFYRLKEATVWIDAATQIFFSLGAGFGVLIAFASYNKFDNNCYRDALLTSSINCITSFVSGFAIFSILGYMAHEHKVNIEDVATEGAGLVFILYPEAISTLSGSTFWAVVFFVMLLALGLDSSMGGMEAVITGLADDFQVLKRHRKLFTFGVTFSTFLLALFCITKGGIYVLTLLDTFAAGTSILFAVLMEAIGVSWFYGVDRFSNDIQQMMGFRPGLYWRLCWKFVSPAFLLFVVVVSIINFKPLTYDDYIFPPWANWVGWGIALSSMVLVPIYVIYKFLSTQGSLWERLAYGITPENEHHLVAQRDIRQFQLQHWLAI
Method: Human Norepinephrine Transporter (NET) Functional Antagonist Uptake Assay was carried out at Panlabs Cerep (assay #302100). Human recombinant norepinephrine transporter expressed in MDCK cells were plated overnight. Test compound and/or vehicle was pre-incubated with cells (2×10E5/ml) in modified Tris-HEPES buffer pH 7.1 for 20 minutes at 25° C. and 25 nM [3H]Norepinephrine was then added for an additional 15 minute incubation period. A lysate was obtained from solubilized cells and counted to determine [3H]Norepinephrine uptake. Reduction of [3H]Norepinephrine uptake by 50 percent or more (≥50%) relative to 10 μM desipramine indicates significant inhibitory activity. Compounds are screened at 10, 3, 1, 0.3, 0.1, 0.03, 0.01 and 0.003 μM. These same concentrations are concurrently applied to a separate group of untreated cells and evaluated for possible compound-induced cytotoxicity only if significant inhibition of uptake is observed. IC50 values were determined by a non-linear, least squares regression analysis using MathIQ™ (IDBusiness Solutions Ltd., UK).

[3] = Rat screening IV/PO pharmacokinetics; type: in vivo; conditions: male, plasma, mean residence time, IV/PO procedure
Method: Plasma pharmacokinetic parameters for clearance, volume of distribution, half-life, mean residence time (MRT) and oral bioavailability (% F)—were determined in rats from oral administration and IV administration studies. 4 male rats, typically weighing 225-260 gram, were fasted overnight prior to dosing. Compounds were prepared for oral and IV dosing by addition to a vehicle, depending on the dose used. For a typical preparation, 1 mg per mL (IV) or 1.5 mg per mL (oral) of test compound was added to vehicle comprised of 20% dimethyl sulfoxide (DMSO), 60% polyethylene glycol 400 (PEG400) and 20% water. IV formulation was administered to 2 rats via pre-cannulated jugular vein, and oral dosing was administered to 2 rats via oral gavage. Blood was collected by pre-cannulated artery, typically at predose, 2 min, 8 min, 15 min, 30 min, and 1, 2, 4, 6, and 8 hr postdose for IV, and at predose, 15 min, 30 min, and 1, 2, 4, 6, 8 hr for oral dosing. Samples were collected in K2EDTA tubes, stored on ice, and centrifuged. Plasma was transferred to a micro titer plate and stored at −70° C. until analysis. Plasma samples were extracted using protein precipitation and analyzed by liquid chromatography separation followed by mass spec detection (LCMS/MS), using a standard curve for each compound. Plasma pharmacokinetic parameters were calculated for IV and oral dosing data by non-compartmental methods. Oral bioavailability was determined as the ratio of the dose-normalized plasma area under the curve (AUC) following oral dosing vs. IV dosing.

[4] = FaSSIF pH 6.5, 24 hours at 25° C., read-out: pH 6.5 (FaSSIF) solubility
[5] = phosphate buffered saline (PBS) pH 2, aqueous buffer, PBS pH 2, 24 hours at 25° C., read-out: pH 2 solubility

Row | SMILES | IC50 (Human plasma kallikrein) | solubility kinetic at 24 h [1, 4] | solubility kinetic at 24 h [1, 5] | IC50 [2] | MRT [3]
1 | COC(=O)Nc1ccc2c(c1)NC(=O)C(C)(C)CCC[C@H](c1ccc(-c3c(-n4cc(C(F)(F)F)cn4)ccc(F)c3F)c[n+]1[O-])c1nc-2c(C)[nH]1 [Example 1, (R,Z)-5-(2,3-difluoro-6-(4-(trifluoromethyl)-1H-pyrazol-1-yl)phenyl)-2-(2^4-((methoxycarbonyl)amino)-1^5,5,5-trimethyl-4-oxo-1^1H-3-aza-1(4,2)-imidazola-2 (1,2)-benzenacyclononaphane-9-yl)pyridine 1-oxide] | 480 nM | 36 µM (≈ 25.5 µg/mL) | > 200 µM | > 10 µM | 5.8 h
2 | COC(=O)Nc1ccc2c(c1)NC(=O)C(C)(C)CCC[C@H](c1ccc(-c3cc(Cl)ccc3-n3cc(C(F)(F)F)cn3)c[n+]1[O-])c1nc-2c(C)[nH]1 [Example 3] | 42 nM | 27 µM (≈ 19.1 µg/mL) | 159 µM (≈ 113 µg/mL) | > 10 µM | 11 h
3 | COC(=O)Nc1ccc2c(c1)NC(=O)C(C)(C)CCC[C@H](c1ccc(-c3cc(Cl)ccc3-n3cc(C(F)F)cn3)c[n+]1[O-])c1nc-2c(C)[nH]1 [Example 4, (R,Z)-5-(5-chloro-2-(4-(difluoromethyl)-1H-pyrazol-1-yl)phenyl)-2-(2^4-((methoxycarbonyl)amino)-1^5,5,5-trimethyl-4-oxo-1^1H-3-aza-1(4,2)-imidazola-2(1,2)-benzenacyclononaphane-9-yl)pyridine 1-oxide] | 46 nM | 44 µM (≈ 30.4 µg/mL) | 166 µM (≈ 115 µg/mL) | 6.5 µM | 2.7 h

The remaining compounds from weak to strong by IC50 (Human plasma kallikrein), led by results:

Row | IC50 (Human plasma kallikrein) | solubility kinetic at 24 h [1, 4] | solubility kinetic at 24 h [1, 5] | IC50 [2] | MRT [3] | SMILES
4 | 1080 nM | 53 µM (≈ 36.7 µg/mL) | 209 µM (≈ 145 µg/mL) | > 10 µM | 5.7 h | COC(=O)Nc1ccc2c(c1)NC(=O)C(C)(C)CCC[C@H](c1ccc(-c3cc(F)ccc3-n3cc(C(F)(F)F)cn3)c[n+]1[O-])c1nc-2c(C)[nH]1 [Example 2, (R.Z)-5-(5-fluoro-2-(4-(trifluoromethyl)-1H-pyrazol-1-yl)phenyl)-2-(2^4-((methoxycarbonyl)amino)-1^5,5,5-trimethyl-4-oxo-1^1H-3-aza-1(4,2)-imidazola-2(1,2)-benzenacyclononaphane-9-yl)pyridine 1-oxide]
5 | 443 nM | 55 µM (≈ 35.3 µg/mL) | 143 µM (≈ 91.7 µg/mL) | 0.18 µM | 5.6 h | COC(=O)Nc1ccc2c(c1)NC(=O)C(C)(C)CCC[C@H](c1ccc(-c3cc(Cl)cnc3OC(F)F)c[n+]1[O-])c1nc-2c(C)[nH]1 [Example 6, (R,Z)-5′-chloro-2′-(difluoromethoxy)-6-(2^4-((methoxycarbonyl)amino)-1^5,5,5-trimethyl-4-oxo-1^1H-3-aza-1(4,2)-imidazola-2(1,2)-benzenacyclononaphane-9-yl)-[3,3′-bipyridine]1-oxide]
6 | 371 nM | 50 µM (≈ 34.6 µg/mL) | 146 µM (≈ 101 µg/mL) | > 10 µM | 4.5 h | COC(=O)Nc1ccc2c(c1)NC(=O)C(C)(C)CCC[C@H](c1ccc(-c3cc(F)ccc3-c3cnn(C(F)(F)F)c3)c[n+]1[O-])c1nc-2c(C)[nH]1 [Example 5, (R,Z)-5-(5-fluoro-2-(1-(trifluoromethyl)-1H-pyrazol-4-yl)phenyl)-2-(2^4-((methoxycarbonyl)amino)-1^5,5,5-trimethyl-4-oxo-1^1H-3-aza-1(4,2)-imidazola-2(1,2)-benzenacyclononaphane-9-yl)pyridine 1-oxide]
